Columns and labels:
[1] = test system: L. infantum promastigote forms; experiment: In vitro activity against extracellular (promastigote) forms; format: cell-based, Leishmania infantum; conditions: for IC50: Leishmania infantum, 72 h; for Selectivity Index (SI) L. infantum Promastigote forms: IC50 of macrophages / IC50 of parasite form
Description: (§1) Methodology: Cultures of three Leishmania species, representative of the species causing each of the clinical forms of the disease, were used for these studies. Specifically, strains MCAN/ES/2001/UCM-1 O of L.infantum, isolated and characterised in Madrid from an infected dog; MHOM/BR/1975/M2904 of L.braziliensis, isolated in Brazil in a human case, and LCR-L 133 LRC of L.donovani. isolated in Jerusalem, Israel from a case of kala-azar […] (WHO Technical Reports Series 949. Geneva: WHO. March. The cultures of parasites come from an own collection which was prepared from a biobank project (Biobank and Characterisation Unit of Strains and Species of Trypanosomatids, Responsible for Human, Animal and Plant Pathologies, Cgl-2008-03687-E/Bos.), and are available on request.
(§2) The promastigote forms of the three species studied were cultured in vitro in sterility in single-phase MTL culture medium (Medium Trypanosomes Liquid) made from Hank’s Balanced Salts (Sigma-Aldrich, H6136) enriched with 10% (v/v) of Fetal Bovine Serum (SBF-1) inactivated at 56° C./ 30 minutes. The parasite inoculum to initiate the culture was 5 × 10^4 cells/ml in 5 ml medium in 25 cm^2 Falcon® plastic flasks and kept in an oven at 28° C. The cultures were performed routinely, achieving exponential growth of the flagellates until obtaining the cell mass necessary for the subsequent studies. Both promastigote forms and amastigote forms were used to conduct the assays.
(§3) The promastigote forms of the three Leishmania strains, cultured in the manner described above, were harvested in their exponential growth phase by centrifugation at 400 g for 10 min. The number of parasites was counted in a Neubauer Haemocytometer Counting Chamber and were inoculated in a 24-well plate at a concentration of 5 ×10^4 parasites/well.
(§4) The compounds to be assayed were dissolved in DMSO at a concentration of 0.01% (v/v), concentration at which this solvent is not toxic nor has any effect on the growth of parasites. The compounds were added to the culture medium at final concentrations of 100, 50, 25 and 12.5 µM. […] M. et al. Med. Chem. 2011. 54. 970-979].

[2] = test system: L. infantum amastigote forms; experiment: In vitro activity against intracellular (amastigote) forms in macrophages; format: cell-based, Leishmania infantum; conditions: for IC50: Leishmania infantum, Macrophage, 72 h; for Selectivity Index (SI) L. infantum Amastigote forms: IC50 of macrophages / IC50 of parasite form
Description: as §1
(§5) For the study of the in vitro effect on intracellular forms of Leishmania, the experimental model designed by the group of the present inventors was used [Sánchez-Moreno. M. et al. Med. Chem. 2012, 55, 9900-9913; Sánchez-Moreno. M. et al. J. Antimicrob. Chemother. 2012, 67, 387-397]. The macrophages were detached from the culture flask where they were attached by dry blows. To do this, it was incubated in cold for 5 minutes and after that the flask was hit with the palm of the hand until the cells were detached from the flask. Then, they were passed to a 25 ml capacity steriling conical bottom flask (Deltalab) to centrifuge them at 120 g for 5 minutes, removing the supernatant and were counted in Neubauer’s chamber. Cells were suspended in RPMI medium at a concentration of 1×10^4 cells/well, then cultured in 24-well plates into which a 12 mm round slide had previously been placed into each well. For adherence, the cells were left 24 h at 37° C. in 5% CO2. Subsequently, the cells were infected in vitro by placing Leishmania cells at the rate of 10 parasites/macrophage according to [Sánchez-Moreno. M et al. Med. Chem. 2011, 54, 970-979]. […] The products were allowed to act for 72 hours of incubation.
(§6) After that time, the crystals were removed and fixed with methanol on a slide and allowed to dry, after which DPX microscopy mounting medium (Panreac®) was added to it. Once the preparations had been mounted, they were dyed with Giemsa by diluting Azur-Eosin-Methylene Blue solution according to Giemsa DC (Code 251338) with Sorensen buffer (1:10 dilution). The preparations were covered and allowed to colour for 20 minutes, after which they were washed with distilled water and then allowed to drain and dry vertically. Finally, the amastigote forms were counted with the aim of immersion in a total of 200 cells.

[3] = test system: L. braziliensis promastigote forms; experiment: In vitro activity against extracellular (promastigote) forms; format: cell-based, Leishmania braziliensis; conditions: for Selectivity Index (SI) L. brazilensis Promastigote forms: IC50 of macrophages / IC50 of parasite form; for IC50: Leishmania braziliensis, 72 h
Description: as §1, §2, §3, §4

[4] = test system: L. braziliensis amastigote forms; experiment: In vitro activity against intracellular (amastigote) forms in macrophages; format: cell-based, Leishmania braziliensis; conditions: for Selectivity Index (SI) L. brazilensis Amastigote forms: IC50 of macrophages / IC50 of parasite form; for IC50: Leishmania braziliensis, Macrophage, 72 h
Description: as §1, §5, §6

[5] = test system: L. donovani promastigote forms; experiment: In vitro activity against extracellular (promastigote) forms; format: cell-based, Leishmania donovani; conditions: for Selectivity Index (SI) L. donvovani Promastigote forms: IC50 of macrophages / IC50 of parasite form; for IC50: Leishmania donovani, 72 h
Description: as §1, §2, §3, §4

[6] = test system: L. donovani amastigote forms; experiment: In vitro activity against intracellular (amastigote) forms in macrophages; format: cell-based, Leishmania donovani; conditions: for Selectivity Index (SI) L. donvovani Amastigote forms: IC50 of macrophages / IC50 of parasite form; for IC50: Leishmania donovani, Macrophage, 72 h
Description: as §1, §5, §6

[7] = test system: J774.2 macrophages; experiment: Macrophage toxicity by flow cytometry; format: cell-based; conditions: for IC50: J774.2 macrophages, 72 h of culture
Procedure: Macrophage toxicity: this study used the experimental model designed by the group of inventors [I. Ramírez-Macías. et. al. J. Antimicrob. Chemother. 2011, 66(4): 813-819] wherein flow cytometry is used. Briefly, macrophages from line J774.2 (ECACC number 91051511, obtained from a BALB/c female […] tumour in 1968) were deposited in a steriling tube and centrifuged at 120 g for 5 minutes. The supernatant was discarded and the cells were resuspended in MEM + Glutamine medium with 20% SBF (fetal bovine serum). 1×10^4 cells per well were then deposited from a 24-well titration plate and incubated for 24-48 h at 37° C. in a humid atmosphere enriched with 5% CO2 to fix them. […] After 72 h of incubation, the samples were prepared for reading on a flow cytometer. Specifically, 100 µl of propidium iodide solution (100 µg/ml) was added to each well and incubated for 10 min at 28° C. in the dark. Subsequently, 100 µl/well of fluorescein diacetate (FDA) (Sigma Chemical Co) in solution (100 ng/mL) was added and incubation was repeated under the same conditions for 10 minutes. Cells were recovered by centrifugation at 400 g for 10 minutes and washing the precipitate with PBS. Finally, the results were analysed in a FACS Vantage flow cytometer (Becton Dickinson) taking into account that the cells with the plasma membrane intact emit green colour as the esterases act on the FDA, while the cells that have lost the integrity of the membrane and are not viable, emit in the range close to 580 nm by penetrating the propidium iodide by passive diffusion and specifically binding to the nucleic acids thereof. Thus, to calculate the percentage of viability, the number of dead cells compared to controls was taken into account.

SMILES	IC50 [1] [µM]	IC50 [2] [µM]	Selectivity Index (SI) L. brazilensis Promastigote forms [3]	IC50 [3] [µM]	Selectivity Index (SI) L. brazilensis Amastigote forms [4]	IC50 [4] [µM]	Selectivity Index (SI) L. donvovani Promastigote forms [5]	IC50 [5] [µM]	Selectivity Index (SI) L. donvovani Amastigote forms [6]	IC50 [6] [µM]	Toxicity in macrophages (IC50) compared with the reference compound [7]	IC50 [7] [µM]	Selectivity Index (SI) L. infantum Promastigote forms [1]	Selectivity Index (SI) L. infantum Amastigote forms [2]
CN(C)CCNCc1cccnc1 [Compound 5, 1-{3-pyridyl}-5-methyl-2,5-diazahexane]	9.2 ± 0.7	10 ± 0.8	14	16.7 ± 0.5	11	20 ± 2	11	21.7 ± 1.6	13	17.6 ± 0.7	much lower	230 ± 16.9		
CN(C)CCNCc1ccnc2ccccc12 [Compound 8, 1-{4-quinolyl)-5-methyl-2,5-diazahexane]	14.1 ± 0.6	11.5 ± 0.8	2	13.8 ± 0.7	1	16.8 ± 1.1	2 (2)	12.8 ± 0.6	2	10.6 ± 0.6		22.5 ± 0.6	2 (2)	2
CNCCNCc1ccncc1 [Compound 3, 1-{4-pyridyl)-2,5-diazahexane]	12.6 ± 2.1	13.9 ± 1	16	14.3 ± 1	8	27.9 ± 1.2	12	18.4 ± 0.8		5.1 ± 0.3		223 ± 17.3	18	16
CNCCNCc1cccnc1 [Compound 2, 1-{3-pyridyl)-2,5-diazahexane]	6.4 ± 0.6	8.4 ± 0.5	76	4.1 ± 0.2	20	15.8 ± 0.5	26	11.7 ± 0.8	21	14.4 ± 0.1	low toxicities	310 ± 11.5		
CNCCNCc1ccnc2ccccc12 [Compound 10]	12.5 ± 1.1	18.7 ± 1.5	9	18.4 ± 1.1	8	21.7 ± 2.3	7	24.1 ± 0.6	6	26.8 ± 2.1		164 ± 10	13	9
CNCCNCc1ccc2ccccc2n1 [Compound 9, 1-{2-quinolyl)-2,5-diazahexane]	15.6 ± 0.8	14.3 ± 0.6	13	28 ± 0.3	13	26.5 ± 0.9	13	27.5 ± 0.4	11	31.9 ± 1.1		354 ± 31.7	23	25
CN(C)CCNCc1ccc2ccccc2n1 [Compound 7]	84.4 ± 5.1	49.7 ± 3.6	4	105 ± 11.6	11	38.9 ± 2.7	8	56.9 ± 2.7	11	38.9 ± 3.2		442 ± 31.6	5	9
CN(C)CCNCc1ccccn1 [Compound 4, 1-(2-pyridyl)-5-methyl-2,5-diazahexane]	28.6 ± 2.5	33.6 ± 1.4	33	37.3 ± 0.9	40	30.8 ± 1.3	36	34.8 ± 1.5	32	38.8 ± 1.4		1240 ± 42.7	43	37
